Drawing on patent publication US20240269304A1, “BCL-XL INHIBITOR ANTIBODY-DRUG CONJUGATES AND METHODS OF USE THEREOF” (Novartis AG, priority 2020, published 2024), this text covers IC50 for 13 compounds.

Experiment [1] has as its system ALL-SIL cells. The experiment in a line: CellTiterGlo (CTG) cell viability, 72 h, ALL-SIL (Example 8). The class given is cell-based. Here is the method:
ALL-SIL cells were cultivated in RPMI supplemented with 20% heat inactivated fetal bovine serum, penicillin (100 IU/ml), streptomycin (100 μg/ml) and L-glutamine (2 mM). Cell lines were cultured at 37° C. in a humidified atmosphere containing 5% CO2. Cells were seeded in 96 well clear bottom plates (96 well clear-bottom, white, Corning reference 3903) and exposed to the payloads or ADCs for 72 h (serially diluted; 9 concentrations each, triplicates). Effects of payloads or ADCs on cell viability were assessed after 3 days of incubation at 37° C./5% CO2 by quantification of cellular ATP levels using CellTiterGlo at 75 μL reagent/well. All the conditions were tested in triplicates. Luminescence was quantified on a multipurpose plate reader. IC50s were calculated using standard four-parametric curve fitting. […] Each experiment was performed at least twice, with results being reproducible.
For orientation: ATP-based viability assays read luminescence as a measure of living cells.

In experiment [2] the test system is DND-41 cells. In words: CellTiterGlo (CTG) cell viability, 72 h, DND-41 (Example 8). The experiment is classed as cell-based. Here is the method: DND-41 cells were cultivated in RPMI supplemented with 10% heat inactivated fetal bovine serum, penicillin (100 IU/ml), streptomycin (100 μg/ml) and L-glutamine (2 mM). Cell lines were cultured at 37° C. in a humidified atmosphere containing 5% CO2. […] Effects of payloads or ADCs on cell viability were assessed after 3 days of incubation at 37° C./5% CO2 by quantification of cellular ATP levels using CellTiterGlo at 75 μL reagent/well. All the conditions were tested in triplicates. Luminescence was quantified on a multipurpose plate reader. IC50s were calculated using standard four-parametric curve fitting.

The subject of experiment [3] is H1650 cells. The experiment in a line: CellTiterGlo (CTG) cell viability, 3D, 120 h, H1650 (Example 8). The following applies: Homo sapiens, NCI-H1650, H1650 3D. The experiment is classed as cell-based, human.
The mark [4] stands for this setting: experiment n1, read-out: ALLSIL CTG 72 h IC50 nM n1.
Setting [5] is: experiment n2, read-out: ALLSIL CTG 72 h IC50 nM n2.
[6] abbreviates: mean of n1 and n2, read-out: ALLSIL CTG 72 h IC50 nM Mean of n1 and n2.
Setting [7] is: DND41, experiment n1, read-out: DND41 CTG 72 h IC50 nM n1.
[8] abbreviates: DND41, experiment n2, read-out: DND41 CTG 72 h IC50 nM n2.
Setting [9] is: DND41, mean of n1 and n2, read-out: DND41 CTG 72 h IC50 nM Mean of n1 and n2.
The mark [10] stands for this setting: experiment n1, read-out: H1650 3D CTG IC50 n1.
[11] abbreviates: experiment n2, read-out: H1650 3D CTG IC50 n2.
Setting [12] is: mean of n1 and n2, read-out: H1650 3D CTG IC50 Mean of n1 and n2.

Structures are written as SMILES. pIC50: −log10 of the molar value. Like-named read-outs stand apart in the source and are kept apart here.

As for `Cc1c(Nc2nc3ccccc3s2)nnc2c1CCCN2c1nc(C(=O)O)c(CCCOc2ccc(C#CCN(C)C)cc2F)s1` [P1, 2-[3-(1,3-Benzothiazol-2-ylamino)-4-methyl-6,7-dihydro-5H-pyrido[2,3-c]pyridazin-8-yl]-5-[3-[4-[3-(dimethylamino)prop-1-ynyl]-2-fluoro-phenoxy]propyl]thiazole-4-carboxylic acid], the IC50 (usually the concentration that gives 50% inhibition) came out at 0.38 nM in experiment [1] (setting [4]); 0.14 nM in experiment [1] (setting [5]); 0.26 nM in experiment [1] (setting [6]); 1.3 nM in experiment [2] (setting [7]); 0.26 nM in experiment [2] (setting [8]); 0.78 nM in experiment [2] (setting [9]). In addition, the pIC50 (usually the negative decadic logarithm of the IC50, by convention in mol/L) was 9.29 in experiment [3] (setting [10]), 8.89 in experiment [3] (setting [11]) and 9.05 in experiment [3] (setting [12]).
On to `Cc1c(Nc2nc3ccccc3s2)nnc2c1CCCN2c1nc(C(=O)O)c(CCCOc2ccc(C#CC(C)N3CCN(C)CC3)cc2F)s1` (stereo not drawn) [P8, 2-[3-(1,3-Benzothiazol-2-ylamino)-4-methyl-6,7-dihydro-5H-pyrido[2,3-c]pyridazin-8-yl]-5-[3-[2-fluoro-4-[3-(4-methylpiperazin-1-yl)but-1-ynyl]phenoxy]propyl]thiazole-4-carboxylic acid], for which the IC50 in experiment [1] (setting [4]) worked out at 0.02 nM; in experiment [1] (setting [5]), 0.03 nM; in experiment [1] (setting [6]), 0.02 nM; in experiment [2] (setting [7]), 0.69 nM; in experiment [2] (setting [8]), 0.41 nM; in experiment [2] (setting [9]), 0.55 nM. In addition, the results for the pIC50 in experiment [3] (setting [10]), in experiment [3] (setting [11]) and in experiment [3] (setting [12]) were 9.15, 8.74 and 8.90, respectively.
In the case of `Cc1c(Nc2nc3ccccc3s2)nnc2c1CCCN2c1nc(C(=O)O)c(CCCOc2ccc(C#CCN3CCCC3)cc2F)s1` [P9, 2-[3-(1,3-Benzothiazol-2-ylamino)-4-methyl-6,7-dihydro-5H-pyrido[2,3-c]pyridazin-8-yl]-5-[3-[2-fluoro-4-(3-pyrrolidin-1-ylprop-1-ynyl)phenoxy]propyl]thiazole-4-carboxylic acid], the IC50 in experiment [1] (setting [4]) was 3.31 nM; in experiment [1] (setting [5]), 1.1 nM; in experiment [1] (setting [6]) it was 2.21 nM; in experiment [2] (setting [7]), 21.8 nM; in experiment [2] (setting [8]), 19.3 nM; in experiment [2] (setting [9]), 20.6 nM. Moreover, the pIC50 in experiment [3] (setting [10]) is 9.15; in experiment [3] (setting [11]) it was 8.85; in experiment [3] (setting [12]) it was 8.98.
`CNCC#Cc1ccc(OCCCc2sc(N(CCC(O)CO)c3cc(C)c(Nc4nc5ccccc5s4)nn3)nc2C(=O)O)c(F)c1` (stereo not drawn) [P44, 2-[[6-(1,3-Benzothiazol-2-ylamino)-5-methyl-pyridazin-3-yl]-(3,4-dihydroxybutyl)amino]-5-[3-[2-fluoro-4-[3-(methylamino)prop-1-ynyl]phenoxy]propyl]thiazole-4-carboxylic acid]: the IC50 came out at 4.64 nM in experiment [1] (setting [4]); 3.14 nM in experiment [1] (setting [5]); 3.89 nM in experiment [1] (setting [6]); 36 nM in experiment [2] (setting [7]); 33.6 nM in experiment [2] (setting [8]); 34.8 nM in experiment [2] (setting [9]).
For the compound `CNCC#Cc1ccc(OCCCc2sc(N(CCCO)c3cc(C)c(Nc4nc5ccccc5s4)nn3)nc2C(=O)O)c(F)c1` [P45, 2-[[6-(1,3-Benzothiazol-2-ylamino)-5-methyl-pyridazin-3-yl]-(3-hydroxypropyl)amino]-5-[3-[2-fluoro-4-[3-(methylamino)prop-1-ynyl]phenoxy]propyl]thiazole-4-carboxylic acid], the IC50 was 3.11 nM in experiment [1] (setting [4]); 4.01 nM in experiment [1] (setting [5]); 3.56 nM in experiment [1] (setting [6]); 17 nM in experiment [2] (setting [7]); 16.8 nM in experiment [2] (setting [8]); 16.9 nM in experiment [2] (setting [9]).
Turning to `CNCC#Cc1ccc(OCCCc2sc(N(CCCC(O)CO)c3cc(C)c(Nc4nc5ccccc5s4)nn3)nc2C(=O)O)c(F)c1` (stereo not drawn) [P46, 2-[[6-(1,3-Benzothiazol-2-ylamino)-5-methyl-pyridazin-3-yl]-(4,5-dihydroxypentyl)amino]-5-[3-[2-fluoro-4-[3-(methylamino)prop-1-ynyl]phenoxy]propyl]thiazole-4-carboxylic acid], the half-maximal inhibitory concentration (IC50) stood at 62.2 nM in experiment [1] (setting [4]); 50 nM in experiment [1] (setting [5]); 56.1 nM in experiment [1] (setting [6]); 212 nM in experiment [2] (setting [7]); 220 nM in experiment [2] (setting [8]); 216 nM in experiment [2] (setting [9]).
Turning to `Cc1c(Nc2nc3ccccc3s2)nnc2c1CCCN2c1ccc(-c2cnn(CC34CC5(C)CC(C)(C3)CC(OCCN(C)CCC(=O)O)(C5)C4)c2C)c(C(=O)O)n1` [P70, 6-[3-(1,3-benzothiazol-2-ylamino)-4-methyl-6,7-dihydro-5H-pyrido[2,3-c]pyridazin-8-yl]-3-[1-[[3-[2-[2-carboxyethyl(methyl)amino]ethoxy]-5,7-dimethyl-1-adamantyl]methyl]-5-methyl-pyrazol-4-yl]pyridine-2-carboxylic acid], the pIC50 in experiment [3] (setting [10]), in experiment [3] (setting [11]) and in experiment [3] (setting [12]) was 8.02 each time.
In the case of `Cc1c(Nc2nc3ccccc3s2)nnc2c1CCCN2c1ccc(-c2cnn(CC34CC5(C)CC(C)(C3)CC(OCCNCCC(=O)O)(C5)C4)c2C)c(C(=O)O)n1` [P71, 6-[3-(1,3-benzothiazol-2-ylamino)-4-methyl-6,7-dihydro-5H-pyrido[2,3-c]pyridazin-8-yl]-3-[1-[[3-[2-(2-carboxyethylamino)ethoxy]-5,7-dimethyl-1-adamantyl]methyl]-5-methyl-pyrazol-4-yl]pyridine-2-carboxylic acid], the figures for the pIC50 in experiment [3] (setting [10]), in experiment [3] (setting [11]) and in experiment [3] (setting [12]) were 7.79, 7.87 and 7.83, respectively.
On the same counts, the results for `Cc1c(Nc2nc3ccccc3s2)nnc2c1CCCN2c1ccc(-c2cnn(CC34CC5(C)CC(C)(CC(CCCNCCCCO)(C5)C3)C4)c2C)c(C(=O)O)n1` [P72, 6-[3-(1,3-benzothiazol-2-ylamino)-4-methyl-6,7-dihydro-5H-pyrido[2,3-c]pyridazin-8-yl]-3-[1-[[3-[3-(4-hydroxybutylamino)propyl]-5,7-dimethyl-1-adamantyl]methyl]-5-methyl-pyrazol-4-yl]pyridine-2-carboxylic acid] are 8.29, 8.25 and 8.27.
On the same counts, the results for `Cc1c(Nc2nc3ccccc3s2)nnc2c1CCCN2c1ccc(-c2cnn(CC34CC5(C)CC(C)(C3)CC(OCCN3CCCC3)(C5)C4)c2C)c(CO)n1` [P73, [6-[3-(1,3-benzothiazol-2-ylamino)-4-methyl-6,7-dihydro-5H-pyrido[2,3-c]pyridazin-8-yl]-3-[1-[[3,5-dimethyl-7-(2-pyrrolidin-1-ylethoxy)-1-adamantyl]methyl]-5-methyl-pyrazol-4-yl]-2-pyridyl]methanol] are 8.07, 8.03 and 8.05.
With `Cc1c(Nc2nc3ccccc3s2)nnc2c1CCCN2c1ccc(-c2cnn(CC34CC5(C)CC(C)(C3)CC(OCCN3CCCC3)(C5)C4)c2C)c(C(=O)N2CCCC2)n1` [P74, [6-[3-(1,3-benzothiazol-2-ylamino)-4-methyl-6,7-dihydro-5H-pyrido[2,3-c]pyridazin-8-yl]-3-[1-[[3,5-dimethyl-7-(2-pyrrolidin-1-ylethoxy)-1-adamantyl]methyl]-5-methyl-pyrazol-4-yl]-2-pyridyl]-pyrrolidin-1-yl-methanone], the pIC50 in experiment [3] (setting [10]) is 8.70; in experiment [3] (setting [11]), 8.73; in experiment [3] (setting [12]) it was 8.71.
The like results for `Cc1c(Nc2nc3ccccc3s2)nnc2c1CCCN2c1ccc(-c2cnn(CC34CC5(C)CC(C)(C3)CC(OCCN3CCCC3)(C5)C4)c2C)c(C(=O)NC(C)C)n1` [P75, 6-[3-(1,3-benzothiazol-2-ylamino)-4-methyl-6,7-dihydro-5H-pyrido[2,3-c]pyridazin-8-yl]-3-[1-[[3,5-dimethyl-7-(2-pyrrolidin-1-ylethoxy)-1-adamantyl]methyl]-5-methyl-pyrazol-4-yl]-N-isopropyl-pyridine-2-carboxamide] were, in that order, 8.64, 8.52 and 8.57.
As for `Cc1c(Nc2nc3ccccc3s2)nnc2c1CCCN2c1ccc(-c2cnn(CC34CC5(C)CC(C)(C3)CC(OCCN3CCCC3)(C5)C4)c2C)c(C(N)=O)n1` [P76, 6-[3-(1,3-benzothiazol-2-ylamino)-4-methyl-6,7-dihydro-5H-pyrido[2,3-c]pyridazin-8-yl]-3-[1-[[3,5-dimethyl-7-(2-pyrrolidin-1-ylethoxy)-1-adamantyl]methyl]-5-methyl-pyrazol-4-yl]pyridine-2-carboxamide], the negative-log IC50 (pIC50) in experiment [3] (setting [10]) is 8.70; in experiment [3] (setting [11]), 8.41; in experiment [3] (setting [12]), 8.53.
